The text below walks through data of ChEMBL document CHEMBL5108051, “Improving the Antimicrobial Performance of Amphiphilic Cationic Antimicrobial Peptides Using Glutamic Acid Full-Scan and Positive Charge Compensation Strategies” (J Med Chem, 2022).

Active and inactive are the calls of the source. The calls are words filed in the database; no cut-off is given here. Bridge positions count the residues as written; N and C are the ends. Square brackets hold non-standard residues; d marks the D form. Peptide text beside a SMILES is read from it. * marks the point of attachment. X1 = CC[C@H](C)CCCCC(=O)*; Dab = NCC[C@H](N)C(=O)O

The test system of series [1] is Staphylococcus aureus. The experiment in a line: Antimicrobial activity against Staphylococcus aureus ATCC 25923 in presence of NaCl. In kind it is functional, organism-based.
In series [2] the test system is Staphylococcus aureus. The experiment in a line: Antimicrobial activity against Staphylococcus aureus ATCC 25923 in presence of KCl. In kind it is functional, organism-based.
In series [3] the test system is Staphylococcus aureus. The experiment in a line: Antimicrobial activity against Staphylococcus aureus ATCC 25923 in presence of MgCl2. It is filed as functional, organism-based.
Series [4] has as its system Escherichia coli. The experiment in a line: Antimicrobial activity against Escherichia coli ATCC 25922 in presence of MgCl2. In kind it is functional, organism-based.
For series [5], the system named is Escherichia coli. As to the kind of experiment: Bactericidal activity against Escherichia coli ATCC 25922 at 2 times MIC measured after 30 mins by time-killing kinetics assay. It is filed as functional. The settings on record: 0.5 h.
The test system of series [6] is Escherichia coli. As to the kind of experiment: Bactericidal activity against Escherichia coli ATCC 25922 at 1 times MIC measured after 2 hrs by time-killing kinetics assay. It is filed as functional.
For series [7], the system named is Escherichia coli. The experiment in a line: Antibiofilm activity against Escherichia coli ATCC 25922 assessed as inhibition of biofilm formation at 2 times MIC measured after 24 hrs by crystal violet staining based assay. It is filed as functional, organism-based.
The subject of series [8] is Escherichia coli. The experiment in a line: Disruption of membrane integrity in Escherichia coli ATCC 25922 assessed as increase in nucleic acid leakage by measuring PI-uptake level by microplate reader assay. It is filed as functional, organism-based.
For series [9], the system named is Staphylococcus aureus. The experiment in a line: Disruption of membrane integrity in Staphylococcus aureus ATCC 25923 assessed as increase in nucleic acid leakage by measuring PI-uptake level by microplate reader assay. It is filed as functional, organism-based.
Series [10] concerns Escherichia coli. The experiment in a line: Antibacterial activity against Escherichia coli ATCC 25922 assessed as inhibition of gentamicin resistance development measured after 15 passages in presence of gentamicin by resistance development assay. It is filed as functional, organism-based.
In series [11] the test system is Staphylococcus aureus. As to the kind of experiment: Antibacterial activity against Staphylococcus aureus ATCC 25923 assessed as inhibition of rifampin resistance development measured after 15 passages in presence of rifampin by resistance development assay. In kind it is functional, organism-based.
A short description of series [12]: Acute toxicity in BALB/c mouse assessed as pathological changes in lung at 20 to 80 mg/kg, ip administered as single dose measured for 7 days by H and E staining method. It is filed as organism-based. The settings on record: in vivo, 168 h, dose 20-80 mg/kg, time 7 day.
Series [13] concerns Staphylococcus aureus. As to the kind of experiment: In vivo antimicrobial activity against Staphylococcus aureus ATCC 25923 infected in BALB/C mouse pulmonary infection model administered ip. It is filed as functional, organism-based. The following applies: dose 5-10 mg/kg, DDE = dose-dependent effect.
Series [14] deals with Staphylococcus aureus. As to the kind of experiment: Antibacterial activity against Staphylococcus aureus ATCC 25923 infected in BALB/C mouse pulmonary infection model assessed as increase in dilation of alveoli in lung at 10 mg/kg, ip after 24 hrs by H and E staining method. In kind it is functional, organism-based.
Series [15] concerns Staphylococcus aureus. As to the kind of experiment: Antibacterial activity against Staphylococcus aureus ATCC 25923 infected in BALB/C mouse pulmonary infection model assessed as increase in alveolar aggregation in lung at 10 mg/kg, ip after 24 hrs by H and E staining method. In kind it is functional, organism-based.
The nature of series [16]: Acute toxicity in BALB/c mouse spleen assessed as edema at 20 to 80 mg/kg, ip administered as single dose measured for 7 days by H and E staining method. It is filed as organism-based. The settings on record: in vivo, 168 h, dose 20-80 mg/kg, time 7 day.
Series [17] relates to HK-2. As to the kind of experiment: Cytotoxicity against human HK-2 cells assessed as reduction in cell viability at 0 to 128 uM incubated for 1 hr by Resazurin cell viability kit. It is filed as toxicity, cell-based. The following applies: hk-2, 1 h, dose 0-128 µM. A general note: Alamar Blue is a resazurin reagent that responds to reducing activity.
Series [18] relates to Escherichia coli. The experiment in a line: Antimicrobial activity against Escherichia coli ATCC 25922 assessed as reduction in survival rate in presence of >= 0.02 microg/ml of trypsin measured after 6 hrs. In kind it is functional, organism-based.
Series [19] deals with Escherichia coli. The experiment in a line: Antimicrobial activity against Escherichia coli ATCC 25922 assessed as reduction in survival rate in presence of >= 0.02 microg/ml of chymotrypsin measured after 6 hrs. It is filed as functional, organism-based.
Series [20] has as its system Escherichia coli. The experiment in a line: Bactericidal activity against Escherichia coli ATCC 25922 at 0.5 times MIC measured after 1 hr by time-killing kinetics assay. In kind it is functional.
In series [21] the test system is Cell membrane. As to the kind of experiment: Induction of cytoplasmic membrane depolarization in Escherichia coli ATCC 25922 assessed as increase in fluorescence intensity at 4 times MIC measured within 1 min by DiSC3-5 dye based fluorescence method. In kind it is subcellular.
Series [22] can be described thus: Acute toxicity in BALB/c mouse assessed as mortality at 20 mg/kg, ip administered as single dose measured for 7 days. The settings on record: in vivo, 168 h, time 7 day. It is filed as organism-based.
Series [23] in a line: Acute toxicity in BALB/c mouse assessed as mortality at 40 mg/kg, ip measured within 10 mins. It is filed as organism-based. The following applies: in vivo.
Series [24] is described as follows: Acute toxicity in BALB/c mouse assessed as ruffled hairs at 10 to 20 mg/kg, ip administered as single dose measured for 7 days. It is filed as organism-based. The following applies: in vivo, 168 h, dose 10-20 mg/kg, time 7 day.
Series [25] is described as follows: Acute toxicity in BALB/c mouse assessed as abdominal twitching at 10 to 20 mg/kg, ip administered as single dose measured for 7 days. It is filed as organism-based. The settings on record: in vivo, 168 h, dose 10-20 mg/kg, time 7 day.
Series [26] can be described thus: Acute toxicity in BALB/c mouse assessed as pathological changes in heart at 10 to 40 mg/kg, ip administered as single dose measured for 7 days by H and E staining method. The settings on record: in vivo, 168 h, dose 10-40 mg/kg, time 7 day. In kind it is organism-based.
Series [27] can be described thus: Acute toxicity in BALB/c mouse spleen assessed as edema at 10 to 40 mg/kg, ip administered as single dose measured for 7 days by H and E staining method. It is filed as organism-based. The following applies: in vivo, 168 h, dose 10-40 mg/kg, time 7 day.
Series [28] in a line: Acute toxicity in BALB/c mouse lung assessed as constricted pulmonary alveoli at 10 to 40 mg/kg, ip administered as single dose measured for 7 days by H and E staining method. It is filed as organism-based. The following applies: in vivo, 168 h, dose 10-40 mg/kg, time 7 day.
Series [29] can be described thus: Acute toxicity in BALB/c mouse liver assessed as infiltration of inflammatory cells at 10 to 40 mg/kg, ip administered as single dose measured for 7 days by H and E staining method. It is filed as organism-based. The following applies: in vivo, 168 h, dose 10-40 mg/kg, time 7 day.
The nature of series [30]: Acute toxicity in BALB/c mouse kidney assessed as edema at 10 to 40 mg/kg, ip administered as single dose measured for 7 days by H and E staining method. In kind it is organism-based. The settings on record: in vivo, 168 h, dose 10-40 mg/kg, time 7 day.
Series [31] deals with Escherichia coli. The experiment in a line: Antimicrobial activity against Escherichia coli ATCC 25922 assessed as reduction in survival rate in presence of 0.02 to 2000 microg/ml of chymotrypsin measured after 6 hrs. It is filed as functional, organism-based.
The test system of series [32] is Staphylococcus aureus. As to the kind of experiment: Antimicrobial activity against Staphylococcus aureus ATCC 25923 assessed as fold increase in MIC in presence of KCl. In kind it is functional.
The subject of series [33] is Staphylococcus aureus. The experiment in a line: Antimicrobial activity against Staphylococcus aureus ATCC 25923 assessed as increase fold in increase MIC in presence of FeCl3. It is filed as functional.
The subject of series [34] is Escherichia coli. As to the kind of experiment: Bactericidal activity against Escherichia coli ATCC 25922 at 2 times MIC measured after 3 hrs by time-killing kinetics assay. In kind it is functional.
A short description of series [35]: Acute toxicity in BALB/c mouse lung assessed as congestion at 20 to 80 mg/kg, ip administered as single dose measured for 7 days by H and E staining method. The following applies: in vivo, 168 h, dose 20-80 mg/kg, time 7 day. In kind it is organism-based.
A short description of series [36]: Acute toxicity in BALB/c mouse lung assessed as distortion of alveolar morphology at 20 to 80 mg/kg, ip administered as single dose measured for 7 days by H and E staining method. It is filed as organism-based. The settings on record: in vivo, 168 h, dose 20-80 mg/kg, time 7 day.
Series [37] is described as follows: Acute toxicity in BALB/c mouse lung assessed as increase in inter-alveolar space at 20 to 80 mg/kg, ip administered as single dose measured for 7 days by H and E staining method. In kind it is organism-based. The following applies: in vivo, 168 h, dose 20-80 mg/kg, time 7 day.
The test system of series [38] is Escherichia coli. As to the kind of experiment: Antibiofilm activity against Escherichia coli ATCC 25922 assessed as inhibition of biofilm formation at 4 times MIC measured after 24 hrs by crystal violet staining based assay. It is filed as functional, organism-based.

In the case of `CC(C)C[C@H](NC(=O)[C@H](CC(C)C)NC(=O)[C@H](CCC(=O)O)NC(=O)[C@H](CCCCN)NC(=O)[C@H](CC(C)C)NC(=O)[C@H](CC(C)C)NC(=O)[C@H](CCCCN)NC(=O)[C@H](C)NC(=O)[C@@H](NC(=O)[C@H](CCCCN)NC(=O)[C@@H]1CCCN1C(=O)[C@H](CC(C)C)NC(=O)[C@@H](N)Cc1ccccc1)C(C)C)C(N)=O` (H-FLPKVAKLLKELL-NH2), the result in series [1], in series [2], in series [3], in [4], in series [7] and in series [8] was Active. For the same compound, the result in series [9], in series [10], in series [11], in [14] and in series [15] was Active. Further, the Activity was 100% in series [5]; 100% in [6]; “Non-Toxic” in series [12]; “Dde” in series [13]; “Toxic” in series [16].
Regarding `CC[C@H](C)CCCCC(=O)N[C@@H](CCN)C(=O)N[C@H](C(=O)N[C@@H](CCN)C(=O)N[C@H]1CCNC(=O)[C@H]([C@@H](C)O)NC(=O)[C@H](CCN)NC(=O)[C@H](CCN)NC(=O)[C@H](CC(C)C)NC(=O)[C@@H](Cc2ccccc2)NC(=O)[C@H](CCN)NC1=O)[C@@H](C)O` (X1-[Dab]T[Dab][Dab][Dab][dF]L[Dab][Dab]T; lactam 4-C), the Activity result in series [17] was “Non-Toxic”; in series [20], 100%; in series [22], “Toxic”; in series [23] it was “Toxic”; in [24] it was “Toxic”; in series [25], “Toxic”. Further, the Activity entry in [26], in series [27], in series [28], in series [29] and in series [30] was “Non-Toxic” in each case. Further, the outcome in series [18], in series [19], in [21] and in series [31] was Active.
`CC[C@H](C)[C@H](NC(=O)[C@@H]1CCCN1C(=O)[C@H](CC(C)C)NC(=O)[C@@H](N)Cc1ccccc1)C(=O)N[C@H](C(=O)N[C@@H](C)C(=O)N[C@@H](CCCCN)C(=O)N[C@@H](CC(C)C)C(=O)N[C@@H](CC(C)C)C(=O)N[C@@H](CO)C(=O)NCC(=O)N[C@@H](CC(C)C)C(=O)N[C@@H](CC(C)C)C(N)=O)C(C)C` (H-FLPIVAKLLSGLL-NH2): the “fold change (FC)” value in series [32] and in series [33] was 2 throughout. For the same compound, the Activity in [34] is 100%; in series [35], “Toxic”; in [36] it was “Toxic”; in [37], “Toxic”. The result in series [38] was Active.
